How the values were obtained:
Format in all cases: cell-based, human
UACC-62 = experiment: SRB anticancer assay, melanoma; conditions: UACC-62, 48 h
NCI-H460 = experiment: SRB anticancer assay, non-small lung; conditions: NCI-H460, 48 h
BT-549 = experiment: SRB anticancer assay, breast; conditions: BT-549, 48 h
IGROV1 = experiment: SRB anticancer assay, ovarian; conditions: IGROV1, 48 h
SR = experiment: SRB anticancer assay, leukemia; conditions: 48 h
SF-295 = experiment: SRB anticancer assay, CNS; conditions: SF-295, 48 h
SN12C = experiment: SRB anticancer assay, renal; conditions: 48 h
NCI-H23 = experiment: SRB anticancer assay, non-small lung; conditions: NCI-H23, 48 h
TK-10 = experiment: SRB anticancer assay, renal; conditions: TK-10, 48 h
HL-60 (TB) = experiment: SRB anticancer assay, leukemia; conditions: HL-60 (TB), 48 h; read-out: GI50
CCRF-CEM = experiment: SRB anticancer assay, leukemia; conditions: 48 h
SNB-75 = experiment: SRB anticancer assay, CNS; conditions: SNB-75, 48 h
NCI-H322M = experiment: SRB anticancer assay, non-small lung; conditions: 48 h
MOLT-4 = experiment: SRB anticancer assay, leukemia; conditions: MOLT-4, 48 h
K-562 = experiment: SRB anticancer assay, leukemia; conditions: K-562, 48 h
RXF 393 = experiment: SRB anticancer assay, renal; conditions: RXF 393, 48 h
UACC-257 = experiment: SRB anticancer assay, melanoma; conditions: UACC-257, 48 h
A549/ATCC = experiment: SRB anticancer assay, non-small lung; conditions: 48 h
OVCAR-4 = experiment: SRB anticancer assay, ovarian; conditions: OVCAR-4, 48 h
COLO 205 = experiment: SRB anticancer assay, colon; conditions: COLO 205, 48 h
EKVX = experiment: SRB anticancer assay, non-small lung; conditions: 48 h
HCT-15 = experiment: SRB anticancer assay, colon; conditions: HCT-15, 48 h
PC-3 = experiment: SRB anticancer assay, prostate; conditions: PC-3, 48 h
DU-145 = experiment: SRB anticancer assay, prostate; conditions: DU-145, 48 h
HS 578T = experiment: SRB anticancer assay, breast; conditions: 48 h
UO-31 = experiment: SRB anticancer assay, renal; conditions: UO-31, 48 h
MCF7 = experiment: SRB anticancer assay, breast; conditions: MCF7, 48 h
LOX IMVI = experiment: SRB anticancer assay, melanoma; conditions: 48 h
HCC-2998 = experiment: SRB anticancer assay, colon; conditions: HCC-2998, 48 h
NCI-H522 = experiment: SRB anticancer assay, non-small lung; conditions: NCI-H522, 48 h
U251 = experiment: SRB anticancer assay, CNS; conditions: U251, 48 h
MDA-MB-231/ATCC = experiment: SRB anticancer assay, breast; conditions: MDA-MB-231/ATCC (row head MDA-MB-), 48 h; read-out: GI50
M14 = experiment: SRB anticancer assay, melanoma; conditions: M14, 48 h
ACHN = experiment: SRB anticancer assay, renal; conditions: 48 h
HT29 = experiment: SRB anticancer assay, colon; conditions: HT29, 48 h
NCI-H226 = experiment: SRB anticancer assay, non-small lung; conditions: NCI-H226, 48 h
SK-MEL-5 = experiment: SRB anticancer assay, melanoma; conditions: SK-MEL-5, 48 h
MDA-MB-435 = experiment: SRB anticancer assay, melanoma; conditions: MDA-MB-435, 48 h
A498 = experiment: SRB anticancer assay, renal; conditions: A498, 48 h
HCT-116 = experiment: SRB anticancer assay, colon; conditions: HCT-116, 48 h

Cc1cc(-c2nc3ccccc3s2)ccc1N [Compound 3a, reference compound]
GI50 (UACC-62): 70.8 µM
GI50 (NCI-H460): 53.7 µM
GI50 (BT-549): 0.1 µM
GI50 (IGROV1): 0.042 µM
GI50 (SR): 17.4 µM
GI50 (SF-295): 64.6 µM
GI50 (SN12C): 50.1 µM
GI50 (NCI-H23): 58.9 µM
GI50 (TK-10): 0.18 µM
GI50 (HL-60 (TB)): 8.71 µM
GI50 (CCRF-CEM): 6.45 µM
GI50 (SNB-75): 33.1 µM
GI50 (NCI-H322M): 43.7 µM
GI50 (MOLT-4): 19.5 µM
GI50 (K-562): 6.02 µM
GI50 (RXF 393): 70.6 µM
GI50 (UACC-257): 74.2 µM
GI50 (A549/ATCC): 28.8 µM
GI50 (OVCAR-4): 0.54 µM
GI50 (COLO 205): 51.3 µM
GI50 (EKVX): 34.7 µM
GI50 (HCT-15): 47.9 µM
GI50 (PC-3): 31.6 µM
GI50 (DU-145): 61.7 µM
GI50 (HS 578T): 66.1 µM
GI50 (UO-31): 6.45 µM
GI50 (MCF7): 0.03 µM
GI50 (LOX IMVI): 37.2 µM
GI50 (HCC-2998): 0.25 µM
GI50 (NCI-H522): 32.4 µM
GI50 (U251): 66.1 µM
GI50 (MDA-MB-231/ATCC): 66.1 µM
GI50 (M14): 57.6 µM
GI50 (ACHN): 51.3 µM
GI50 (HT29): 29.5 µM
GI50 (NCI-H226): 0.35 µM
GI50 (SK-MEL-5): 21.9 µM
GI50 (MDA-MB-435): 79.5 µM
GI50 (A498): 42.7 µM
GI50 (HCT-116): 43.7 µM
